The record followed here is ChEMBL document CHEMBL3046494, “Identification of liver X receptor and farnesoid X receptor dual agonists from Tithonia diversifolia” (Med Chem Res, 2013).

The structures appear in SMILES notation. Activity calls are given as the source filed them. The rule behind the calls is not given here.

Holding throughout (assay type): cell-based
Data set [1] concerns the target T1, Bile acid receptor (Homo sapiens) (UniProt Q96RI1).
T1 sequence (whole entry): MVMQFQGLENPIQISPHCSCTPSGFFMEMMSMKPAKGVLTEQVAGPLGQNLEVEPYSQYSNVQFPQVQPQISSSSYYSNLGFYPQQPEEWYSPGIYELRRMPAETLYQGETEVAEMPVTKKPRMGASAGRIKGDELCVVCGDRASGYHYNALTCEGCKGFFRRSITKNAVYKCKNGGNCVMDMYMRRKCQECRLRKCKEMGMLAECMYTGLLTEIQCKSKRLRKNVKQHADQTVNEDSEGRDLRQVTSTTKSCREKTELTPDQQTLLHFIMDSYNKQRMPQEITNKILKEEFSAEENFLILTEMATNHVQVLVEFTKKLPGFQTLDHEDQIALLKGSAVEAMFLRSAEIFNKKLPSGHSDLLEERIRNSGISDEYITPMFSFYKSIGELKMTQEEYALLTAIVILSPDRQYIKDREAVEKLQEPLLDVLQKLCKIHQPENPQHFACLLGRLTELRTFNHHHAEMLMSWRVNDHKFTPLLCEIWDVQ
Kind of data set: Agonist activity at Homo sapiens (human) FXR ligand binding domain expressed in HepG2 cells assessed as transactivation of GAL4 gene expression at 100 nM after 48 hr by luciferase reporter gene assay relative to control. Background: Reporter assays use an easily measured gene product as a stand-in for the process of interest.

Data set [2] has as its target T2, Oxysterols receptor LXR-alpha (Homo sapiens) (UniProt Q13133).
T2 sequence (whole entry): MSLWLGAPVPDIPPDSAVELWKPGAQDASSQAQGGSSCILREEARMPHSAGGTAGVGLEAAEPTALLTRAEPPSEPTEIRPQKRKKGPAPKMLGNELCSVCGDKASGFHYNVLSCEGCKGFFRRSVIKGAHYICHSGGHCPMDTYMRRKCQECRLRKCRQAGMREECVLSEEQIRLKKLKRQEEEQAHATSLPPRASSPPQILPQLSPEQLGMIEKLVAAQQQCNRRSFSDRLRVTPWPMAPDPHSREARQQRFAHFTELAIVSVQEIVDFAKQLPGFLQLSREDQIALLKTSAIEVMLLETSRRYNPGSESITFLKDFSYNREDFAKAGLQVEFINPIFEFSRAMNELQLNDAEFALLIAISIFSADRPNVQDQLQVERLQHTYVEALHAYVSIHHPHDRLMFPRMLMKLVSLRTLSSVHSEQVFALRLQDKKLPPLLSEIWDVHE
Kind of data set: Agonist activity at Homo sapiens (human) LXRalpha expressed in HepG2 cells assessed as transactivation of ABCA1 gene expression after 48 hr by luciferase reporter gene assay.

The target in data set [3] is T2, Oxysterols receptor LXR-alpha (Homo sapiens). Kind of data set: Agonist activity at Homo sapiens (human) LXRalpha expressed in HepG2 cells assessed as transrepression of PEPCK gene expression after 48 hr by luciferase reporter gene assay.
Data set [4] has the same target. Kind of data set: Agonist activity at Homo sapiens (human) LXRalpha expressed in HepG2 cells assessed as transactivation of SREBP1c gene expression at 10 uM after 48 hr by luciferase reporter gene assay relative to control.
For data set [5], the target named is T3, Oxysterols receptor LXR-beta (Homo sapiens) (UniProt P55055).
T3 sequence (whole entry): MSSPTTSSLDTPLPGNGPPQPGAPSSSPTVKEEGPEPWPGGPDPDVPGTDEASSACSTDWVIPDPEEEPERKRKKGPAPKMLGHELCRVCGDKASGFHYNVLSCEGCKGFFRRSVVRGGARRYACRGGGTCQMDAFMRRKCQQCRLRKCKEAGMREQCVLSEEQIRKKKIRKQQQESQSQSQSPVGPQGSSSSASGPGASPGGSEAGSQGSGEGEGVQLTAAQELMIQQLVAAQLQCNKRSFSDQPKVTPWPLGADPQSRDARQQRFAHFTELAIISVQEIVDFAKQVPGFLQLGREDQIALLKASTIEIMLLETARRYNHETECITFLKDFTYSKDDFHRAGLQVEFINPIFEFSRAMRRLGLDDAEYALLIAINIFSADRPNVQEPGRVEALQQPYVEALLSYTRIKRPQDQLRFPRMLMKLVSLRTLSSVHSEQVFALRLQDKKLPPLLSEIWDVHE
Kind of data set: Agonist activity at Homo sapiens (human) LXRbeta expressed in HepG2 cells assessed as transactivation of ABCA1 gene expression after 48 hr by luciferase reporter gene assay.

Data set [6] deals with T2, Oxysterols receptor LXR-alpha (Homo sapiens). Kind of data set: Agonist activity at Homo sapiens (human) LXRalpha expressed in HepG2 cells assessed as transactivation of CYP7A1 gene expression at 10 uM after 48 hr by luciferase reporter gene assay relative to vehicle-treated control.
In data set [7] the target is T3, Oxysterols receptor LXR-beta (Homo sapiens). Kind of data set: Agonist activity at Homo sapiens (human) LXRbeta expressed in HepG2 cells assessed as transactivation of ABCA1 gene expression at 10 uM after 48 hr by luciferase reporter gene assay relative to control.
Data set [8] has as its target T2, Oxysterols receptor LXR-alpha (Homo sapiens). Kind of data set: Agonist activity at Homo sapiens (human) LXRalpha expressed in HepG2 cells assessed as decrease in PEPCK gene transactivation at 10 uM after 48 hr by luciferase reporter gene assay relative to control. Further details: scale not given: the % may be the effect or the level left.
Data set [9] shares this target. Kind of data set: Agonist activity at Homo sapiens (human) LXRalpha expressed in HepG2 cells assessed as transactivation of ABCA1 gene expression at 10 uM after 48 hr by luciferase reporter gene assay relative to control.
Data set [10] concerns HepG2. Kind of data set: Cytotoxicity against Homo sapiens (human) HepG2 cells after 48 hr. To be noted: hepg2, 48 h.
The target in data set [11] is T3, Oxysterols receptor LXR-beta (Homo sapiens). Kind of data set: Agonist activity at Homo sapiens (human) LXRbeta expressed in HepG2 cells assessed as transactivation of ABCA1 gene expression at 1 uM after 48 hr by luciferase reporter gene assay relative to control.
For data set [12], the target named is T1, Bile acid receptor (Homo sapiens). Kind of data set: Agonist activity at Homo sapiens (human) FXR ligand binding domain expressed in HepG2 cells assessed as transactivation of SHP gene expression at 100 nM after 48 hr by luciferase reporter gene assay relative to control.
For data set [13], the target named is T2, Oxysterols receptor LXR-alpha (Homo sapiens). Kind of data set: Agonist activity at Homo sapiens (human) LXRalpha expressed in HepG2 cells assessed as transactivation of SREBP1c gene expression after 48 hr by luciferase reporter gene assay.
Data set [14] addresses T1, Bile acid receptor (Homo sapiens). Kind of data set: Agonist activity at Homo sapiens (human) FXR ligand binding domain expressed in HepG2 cells assessed as transactivation of GAL4 gene expression at 1 uM after 48 hr by luciferase reporter gene assay relative to control.
In data set [15] the target is T2, Oxysterols receptor LXR-alpha (Homo sapiens). Kind of data set: Agonist activity at Homo sapiens (human) LXRalpha expressed in HepG2 cells assessed as PEPCK gene expression at 100 nM after 48 hr by luciferase reporter gene assay relative to control.
In data set [16] the target is T1, Bile acid receptor (Homo sapiens). Kind of data set: Agonist activity at Homo sapiens (human) FXR ligand binding domain expressed in HepG2 cells assessed as transactivation of SHP gene expression at 10 uM after 48 hr by luciferase reporter gene assay relative to control.
For data set [17], the target named is T2, Oxysterols receptor LXR-alpha (Homo sapiens). Kind of data set: Agonist activity at Homo sapiens (human) LXRalpha expressed in HepG2 cells assessed as transactivation of SREBP1c gene expression at 1 uM after 48 hr by luciferase reporter gene assay relative to control.

Consider `C=C1C(=O)O[C@@H]2C[C@H](C)[C@@]3(O)C[C@H](O)[C@@](C)(C[C@@H](OC(=O)C(C)C)[C@@H]12)O3` [TAGITININ A], for which the outcome in data set [1], in [12] and in data set [15] was inactive. Moreover, the Activity entry in data set [2] was “Dose-dependent effect”; in data set [3] it was “Dose-dependent effect”; in data set [5] it was “Dose-dependent effect”; in data set [8], 58%; in [10], “Non-toxic”; in [13], “Dose-dependent effect”. For the same molecule, the fold change (FC) is 3.42 in data set [4]; 2 in data set [6]; 1.5 in data set [7]; 1.9 in data set [9]; 1.5 in [11]; 1.6 in [14]. The fold change (FC) in data set [16] came to 2.3; in [17], 2.26.
On to `C=C1C(=O)O[C@@H]2/C=C(/C)C(=O)/C=C/[C@](C)(O)C[C@@H](OC(=O)C(C)C)[C@@H]12` [TAGITININ C], for which, in [10], the Activity entry is on record as “Toxic”.
`C=C1C(=O)O[C@@H]2C[C@H](C)[C@@]3(O)CC[C@@](C)(C[C@@H](OC(=O)C(C)C)[C@@H]12)O3` [TIROTUNDIN]: the outcome in data set [1] and in data set [12] was inactive. For the same molecule, the Activity entry in data set [2] is “Dose-dependent effect”; in data set [3], “Dose-dependent effect”; in [5], “Dose-dependent effect”; in [8], 46%; in data set [10], “Non-toxic”; in [13], “Dose-dependent effect”. Also, the fold change (FC) came to 4.52 in data set [4]; 2 in data set [6]; 2.2 in data set [7]; 1.7 in data set [9]; 1.5 in data set [11]; 1.6 in [14]. For the same molecule, the fold change (FC) came to 0.94 in [15], 2.41 in data set [16] and 2.3 in [17].
